In article PMC7311426, “An amphipathic peptide with antibiotic activity against multidrug-resistant Gram-negative bacteria” (Nature Communications, 2020):
In brackets after ≈: the same amount, converted by molar mass. Like-named read-outs stand apart in the source and are kept apart here. Residues, ends and D or L forms follow the SMILES beside them.

Key:
[1] = system: E. coli ATCC 25922; experiment: microbe, parasite or virus in culture; format: cell-based, Escherichia coli; set-up: MIC, Survanta (5%) replicates: unit not given beside the values; details: for MIC, Survanta (5%) replicates / MIC, Serum (50%) / MIC, Serum (50%) replicates: E. coli ATCC 25922, FDA control strain; for MIC, Survanta (5%) replicates: BMD with 5% Survanta lung surfactant; for MIC, Serum (50%) / MIC, Serum (50%) replicates: BMD with 50% human serum; for MIC, Serum (50%): mode, or median where no mode, n=4 to 6, where n=2 differs the higher value; for MIC: Escherichia coli, E. coli ATCC 25922, n=2 to 6, mode or median
Procedure, shortened: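 Broth microdilution MIC in Mueller Hinton broth, 12-point 2-fold series from 128 or 64 down to 0.06 or 0.03 μg mL^−1, 5 × 10^5 CFU mL^−1 inoculum. Read visually after 18-20 h at 37 °C without shaking; n ≥ 6. Additional tests in CAMHB, and in MHB with 1% agarose.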

[2] = system: P. aeruginosa; experiment: microbe, parasite or virus in culture; format: cell-based, Pseudomonas aeruginosa; set-up: MIC, Survanta (5%) replicates: unit not given beside the values; details: for MIC: Pseudomonas aeruginosa
[3] = system: P. aeruginosa (UNT138-1 & ATCC 27853); experiment: microbe, parasite or virus in culture; format: cell-based, Pseudomonas aeruginosa
Method: (§1) The test media was cation-adjusted MHB (CAMHB, Becton Dickinson) supplemented with 2% Noble Agar (Becton Dickinson) and additionally for AA139 with 0.1% BSA. The agar dilution MIC values were determined as recommended by Clinical and Laboratory Standards Institute (CLSI)[47]. […] The inoculum for the spontaneous mutation plates targeted 10^9 to 10^10 colony-forming units (CFU) per plate. The viable count of each suspension was determined by plating serial ten-fold dilutions onto MHB/NA in duplicate. In addition, agar plates without drug were inoculated as positive controls. Plates were inspected for growth at both 24 and 48 h. Colony counts were determined manually. Using the counts at 48 h, the spontaneous mutation frequency was calculated using the following equation: (average number of colonies from duplicate selection plates)/(total number of cells inoculated onto each plate). If there were no colonies on the antibiotic selection plates, the spontaneous mutation frequency was reported as less than the frequency observed with one colony to indicate that the spontaneous mutation frequency was less than the limit of detection (one CFU).

[4] = system: K. pneumoniae (#3010 & ST258); experiment: microbe, parasite or virus in culture; format: cell-based, Klebsiella pneumoniae
Method: as §1

[5] = system: E. coli (AID#172 & ATCC 25922); experiment: microbe, parasite or virus in culture; format: cell-based, Escherichia coli; details: for MIC: Escherichia coli
Method: as §1

[6] = system: A. baumannii ATCC 19636; experiment: microbe, parasite or virus in culture; format: cell-based, Acinetobacter baumannii; details: for MIC, Survanta (5%) / MIC, Survanta (5%) replicates: A. baumannii ATCC 19636, type strain, BMD with 5% Survanta lung surfactant; for MIC, Survanta (5%): mode, or median where no mode, n=4 to 6, where n=2 differs the higher value; for MIC: Acinetobacter baumannii, ATCC19636, read-out: MIC, Survanta (5%), A. baumannii ATCC 19636 type strain, n=2 to 6, mode or median
[7] = system: E. coli; set-up: method as in Hasman H, et al. Euro. Surveill. (2015) 20:49; details: E. coli ESBL20150072, mcr-1 pos; ESBL; CAMHB; comparator antibiotics; ref Hasman H, et al. Euro. Surveill. (2015) 20:49; cited from earlier work
[8] = system: E. coli ATCC 25922; format: cell-based, Escherichia coli; details: E. coli ATCC 25922, FDA control strain; BMD with 5% Survanta lung surfactant; mode, or median where no mode, n=4 to 6; where n=2 differs the higher value
[9] = P. aeruginosa FADDI-070 MDR, PmxR, n=2 to 6, mode or median
[10] = ATCC25922, read-out: MIC, SURVANTA (5%), MHB + 5% (v/v) lung surfactant
[11] = P. aeruginosa FADDI-070, MDR, PmxR, BMD with 5% Survanta lung surfactant, mode, or median where no mode, n=4 to 6, where n=2 differs the higher value
[12] = P. aeruginosa FADDI-070, MDR, PmxR, BMD with 5% Survanta lung surfactant, replicate 1
[13] = P. aeruginosa FADDI-070, MDR, PmxR, BMD with 5% Survanta lung surfactant, replicate 2
[14] = P. aeruginosa FADDI-070, MDR, PmxR, BMD with 5% Survanta lung surfactant, replicate 3
[15] = P. aeruginosa FADDI-070, MDR, PmxR, BMD with 5% Survanta lung surfactant, replicate 4
[16] = P. aeruginosa FADDI-070, MDR, PmxR, BMD with 50% human serum, replicate 1
[17] = P. aeruginosa FADDI-070, MDR, PmxR, BMD with 50% human serum, replicate 2
[18] = P. aeruginosa FADDI-070, MDR, PmxR, BMD with 50% human serum, where n=2 differs the higher value is recorded

Compound: CC(C)[C@@H]1NC(=O)[C@H](Cc2ccc(O)cc2)NC(=O)[C@H](Cc2c[nH]c3ccccc23)NC(=O)[C@@H](NC(=O)[C@H](Cc2ccccc2)NC(=O)CN)CSSC[C@@H](C(=O)N[C@@H](CC(N)=O)C(=O)O)NC(=O)[C@H](CCCNC(=N)N)NC(=O)[C@H](CCCNC(=N)N)NC(=O)[C@H](Cc2ccc(O)cc2)NC(=O)[C@@H]2CSSC[C@H](NC1=O)C(=O)N[C@@H](C)C(=O)N[C@@H](CCCNC(=N)N)C(=O)N[C@@H](CCCNC(=N)N)C(=O)N[C@@H](CC(N)=O)C(=O)NCC(=O)N[C@@H](C)C(=O)N[C@@H](CCCNC(=N)N)C(=O)N[C@@H](C(C)C)C(=O)N2 [AA139] (HELM PEPTIDE1{G.F.C.W.Y.V.C.A.R.R.N.G.A.R.V.C.Y.R.R.C.N}$PEPTIDE1,PEPTIDE1,3:R3-20:R3|PEPTIDE1,PEPTIDE1,7:R3-16:R3$$$V2.0)
- MIC, MHB ([1]; ATCC 25922): 0.125 µg/mL (≈ 0.049 µM)
- MIC, Serum (50%) [2, 9]: 8 µg/mL (≈ 3.14 µM)
- MIC, Survanta (5%) [2, 9]: 8 µg/mL (≈ 3.14 µM)
- Agar (Noble) Dilution MIC ([3]; P. aeruginosa ATCC 27853): 8 µg/mL
- Agar (Noble) Dilution MIC ([3]; P. aeruginosa UNT138-1): 16 µg/mL
- Agar (Noble) Dilution MIC ([4]; K. pneumoniae 3010): 16 µg/mL
- Agar (Noble) Dilution MIC ([4]; K. pneumoniae ST258): 16 µg/mL
- Agar (Noble) Dilution MIC ([5]; E. coli ATCC 25922): 8 µg/mL
- Agar (Noble) Dilution MIC ([5]; E. coli AUD172): 8 µg/mL

Compound: O=C(O)c1cn(C2CC2)c2cc(N3CCNCC3)c(F)cc2c1=O [Ciprofloxacin, ciprofloxacin]
- MIC, Survanta (5%) replicates ([1]; replicate 1): ≤0.03
- MIC, Survanta (5%) replicates ([1]; replicate 2): ≤0.03
- MIC, Survanta (5%) replicates ([1]; replicate 3): ≤0.03
- MIC, Survanta (5%) replicates ([1]; replicate 4): ≤0.03
- MIC, Serum (50%) [1]: ≤0.03
- MIC, Serum (50%) replicates ([1]; replicate 1): ≤0.03
- MIC, Serum (50%) replicates ([1]; replicate 2): ≤0.03
- MIC, Serum (50%) replicates ([1]; replicate 3): ≤0.03
- MIC, Serum (50%) replicates ([1]; replicate 4): ≤0.03
- MIC [1, 10]: ≤ 0.03 µg/mL
- MIC, Survanta (5%) [6]: 1
- MIC, Survanta (5%) replicates ([6]; replicate 2): 1
- MIC, Survanta (5%) replicates ([6]; replicate 3): 1
- MIC, Survanta (5%) replicates ([6]; replicate 4): 1
- MIC [6]: 1 µg/mL (≈ 3.02 µM)
- MIC, Survanta (5%) ([2]; P. aeruginosa ATCC 27853, control strain, BMD with 5% Survanta lung surfactant, mode, or median where no mode, n=4 to 6, where n=2 differs the higher value): 1
- MIC, Survanta (5%) replicates ([2]; P. aeruginosa ATCC 27853, control strain, BMD with 5% Survanta lung surfactant, replicate 1): 1
- MIC, Survanta (5%) replicates ([2]; P. aeruginosa ATCC 27853, control strain, BMD with 5% Survanta lung surfactant, replicate 2): 1
- MIC, Survanta (5%) replicates ([2]; P. aeruginosa ATCC 27853, control strain, BMD with 5% Survanta lung surfactant, replicate 3): 0.5
- MIC, Survanta (5%) replicates ([2]; P. aeruginosa ATCC 27853, control strain, BMD with 5% Survanta lung surfactant, replicate 4): 0.5
- MIC, Serum (50%) replicates ([2]; P. aeruginosa ATCC 27853, control strain, BMD with 50% human serum, replicate 1): 0.125
- MIC, Survanta (5%) [2, 11]: 0.5
- MIC, Survanta (5%) replicates [2, 12]: 1
- MIC, Survanta (5%) replicates [2, 13]: 1
- MIC, Survanta (5%) replicates [2, 14]: 0.125
- MIC, Survanta (5%) replicates [2, 15]: 0.5
- MIC, Serum (50%) replicates [2, 16]: 0.06
- MIC, Serum (50%) replicates [2, 17]: 0.06
- MIC, Serum (50%) [2, 18]: 0.06
- MIC ([2]; ATCC27853, read-out: MIC, Survanta (5%), P. aeruginosa ATCC 27853 control strain, n=2 to 6, mode or median): 1 µg/mL (≈ 3.02 µM)
- MIC ([2]; read-out: MIC, Serum (50%)): 0.06 µg/mL (≈ 0.181 µM)
- MIC ([2]; read-out: MIC, Survanta (5%)): 0.5 µg/mL (≈ 1.51 µM)
- BMD MIC [7]: >2 µg/mL
- MIC, Survanta (5%) [8]: ≤0.03

Compound: CNC(C)C1CCC(N)C(OC2C(N)CC(N)C(OC3OCC(C)(O)C(NC)C3O)C2O)O1 (centres unmarked) [Gentamicin, gentamicin, reference compound]
- BMD MIC [7]: >8 µg/mL

Compound: C[C@H]1COc2c(N3CCN(C)CC3)c(F)cc3c(=O)c(C(=O)O)cn1c23 [LEV, levofloxacin, reference compound]
- MIC ([3]; Pseudomonas aeruginosa, ATCC27853, read-out: Agar (Noble) Dilution MIC, P. aeruginosa ATCC 27853): 2 µg/mL (≈ 5.53 µM)
- MIC ([4]; Klebsiella pneumoniae, read-out: Agar (Noble) Dilution MIC, K. pneumoniae ST258): > 8 µg/mL
- MIC ([5]; ATCC25922, read-out: Agar (Noble) Dilution MIC, E. coli ATCC 25922): 0.03 µg/mL (≈ 0.083 µM)
- MIC ([5]; ATCC25922, read-out: Agar (Noble) Dilution MIC, E. coli AUD172): 8 µg/mL (≈ 22.1 µM)

Compound: COc1cc(Cc2cnc(N)nc2N)cc(OC)c1OC [Trimethoprim]
- MIC, Survanta (5%) replicates ([1]; replicate 1): 1
- MIC, Survanta (5%) replicates ([1]; replicate 2): 1
- MIC, Survanta (5%) replicates ([1]; replicate 3): 1
- MIC, Survanta (5%) replicates ([1]; replicate 4): 1
- MIC, Serum (50%) [1]: 4
- MIC, Serum (50%) replicates ([1]; replicate 1): 4
- MIC, Serum (50%) replicates ([1]; replicate 2): 2
- MIC, Serum (50%) replicates ([1]; replicate 3): 4
- MIC, Serum (50%) replicates ([1]; replicate 4): 4
- MIC [1, 10]: 1 µg/mL
- MIC ([1]; ATCC25922, read-out: MIC, Serum (50%), MHB + 50% (v/v) human serum): 4 µg/mL
- MIC, Survanta (5%) [6]: 32
- MIC, Survanta (5%) replicates ([6]; replicate 1): >64
- MIC, Survanta (5%) replicates ([6]; replicate 2): >64
- MIC, Survanta (5%) replicates ([6]; replicate 3): 16
- MIC, Survanta (5%) replicates ([6]; replicate 4): 32
- MIC [6]: 32 µg/mL (≈ 110 µM)
- MIC, Serum (50%) [2]: >64
- MIC, Serum (50%) replicates [2]: >64
- MIC, Survanta (5%) [2]: >64
- MIC, Survanta (5%) replicates [2]: >64
- MIC, Survanta (5%) [2, 11]: >64
- MIC, Survanta (5%) replicates [2, 12]: >64
- MIC, Survanta (5%) replicates [2, 13]: >64
- MIC, Survanta (5%) replicates [2, 14]: >64
- MIC, Survanta (5%) replicates [2, 15]: >64
- MIC, Serum (50%) replicates [2, 16]: >64
- MIC, Serum (50%) replicates [2, 17]: 64
- MIC, Serum (50%) [2, 18]: ≥64
- MIC ([2]; ATCC27853, read-out: MIC, Serum (50%)): > 64 µg/mL
- MIC ([2]; ATCC27853, read-out: MIC, Survanta (5%)): > 64 µg/mL
- MIC ([2]; read-out: MIC, Serum (50%)): ≥ 64 µg/mL
- MIC ([2]; read-out: MIC, Survanta (5%)): > 64 µg/mL
- MIC, Survanta (5%) [8]: 1

Compound: polymyxin B [PolymyxinB, reference compound]
- BMD MIC [7]: 4 µg/mL
